Reference: patent US20110217293A1, “Uses of morelloflavone” (priority 2008, published 2011)
“Also recorded” adds a separate entry of the source.

Key:
[1] = system: vascular smooth muscle cells; experiment: Scratch wound cell migration assay; format: cell-based, mouse; conditions: for migration index: 18 hrs
Procedure: (§1) Mouse vascular smooth muscle cells, isolated as described (13), were maintained in 231 media (Cascade Biologics, Portland, Oreg.) supplemented with SMGS (Cascade Biologics) in a humidified incubator at 37° C. with 5% CO2. Cells from passages 4-9 were used in all experiments. All experiments were performed in subconfluent, unsynchronized cells growing in SMGS except for the lamellipodium formation assay.
Vascular smooth muscle cells that had been grown to confluence in 6-well culture plates were scratched with a sterile […] pipette tip and exposed to various concentrations of morelloflavone. The cells were allowed to migrate onto the plastic surface for 18 hrs and photographed. A migration index was determined based on the number of cells that migrated onto 1 mm^2 free plastic surface, using the Image J software (NIH).

[2] = system: vascular smooth muscle cells; experiment: Invasion assay (modified Boyden chamber); format: cell-based, mouse; conditions: 1 mM morelloflavone, 8-hour incubation
Procedure: as §1
The lower chambers of the ChemoTx® Disposable Chemotaxis System (NeuroProbe, Gaithersburg, Md.) were filled with […] of SMGS diluted in 231 medium at the appropriate concentrations (0-10%). A filter membrane ([…] pore size) was positioned over the lower wells, and 1×10^4 vascular smooth muscle cells suspended in […] 231 medium (without morelloflavone) were placed on the test sites within circular hydrophobic masks on the upper side of the filter plate (n=5 each). […] After additional 8-hour incubation, cells on the upper surface of the membrane, i.e., cells that had not migrated, were scraped off by Q-tips, and cells that had migrated to the lower surface were fixed and stained by hematoxylin solution and counted. Migrated cell 6 numbers were calculated as the number of cells migrated per 8.0 mm^2 test site surface area.

[3] = system: focal adhesion kinase (FAK); experiment: Western blot, phosphorylation of FAK; format: cell-based, mouse; conditions: low concentrations (0.1 & 1 mM), 5 min
Procedure: For the evaluation of phosphorylated FAK and c-Src, Western blot analyses were performed as described (15). Briefly, vascular smooth muscle cells were seeded on 10-cm dishes, treated with various concentrations of morelloflavone for 5 min, and harvested into RIPA buffer with protease inhibitor cocktails. Cleared cell lysates ([…] of protein) were incubated with anti-FAK or anti-c-Src antibodies at 4° C. for 1 hr in a final volume of 1 mL RIPA buffer, and incubated for another 1 hr with protein A/G agarose beads (Santa Cruz; SCBT sc-2003). Immunoprecipitated proteins were eluted into SDS-loading 7 buffer and subjected to 12% SDS-PAGE and immunoblotting using anti-FAK (Santa Cruz; A-17; sc-557) and anti-c-Src (Santa Cruz; SRC-2; sc-18) antibodies for total FAK and c-Src, respectively, and anti-phosphotyrosine antibody (Santa Cruz; PY-20; sc-508) for phosphorylated FAK and c-Src. Densitometric analyses were performed using Adobe Photoshop (Adobe Systems Incorporated, San Jose, Calif.).

Analysis of lipids = format: in vivo, mouse; conditions: Ldlr−/−Apobec1−/− mice, morelloflavone diet 8 months
Procedure: Plasma levels of triglycerides, total cholesterol, phospholipids, and non-esterified fatty acids of control and morelloflavone-treated animals were measured and using commercially available kits according to manufacturer's instruction (Randox Laboratories, Crumlin, UK; Thermo Fisher Scientific, Waltham, Mass.; Wako Chemicals, Richmond, Va.).

Lp-PLA2 = target: T1, Lp-PLA2 (Homo sapiens, UniProt Q13093); experiment: PLA2 enzyme activity assay, Lp-PLA2; format: biochemical; conditions: recombinant human Lp-PLA2, data not shown
T1 sequence (Q13093 22-441): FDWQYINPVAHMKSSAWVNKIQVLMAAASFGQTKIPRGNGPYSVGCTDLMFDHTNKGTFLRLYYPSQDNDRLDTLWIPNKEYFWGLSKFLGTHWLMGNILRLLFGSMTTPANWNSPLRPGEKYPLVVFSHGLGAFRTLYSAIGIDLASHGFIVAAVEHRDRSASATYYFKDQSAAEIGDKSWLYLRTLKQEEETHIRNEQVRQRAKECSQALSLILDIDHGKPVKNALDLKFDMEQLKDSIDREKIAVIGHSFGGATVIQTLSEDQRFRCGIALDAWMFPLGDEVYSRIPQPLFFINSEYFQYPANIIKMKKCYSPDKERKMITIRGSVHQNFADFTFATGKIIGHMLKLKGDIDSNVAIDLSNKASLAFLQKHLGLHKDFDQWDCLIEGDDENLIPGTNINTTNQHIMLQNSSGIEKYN
Procedure: Recombinant human sPLA2 isoforms, Group IB, Group IIA, Group V, and Lp-PLA2 were obtained from R&D Systems and Cayman Chemical Co. sPLA2 enzyme activities in the presence of various concentrations of morelloflavone or other inhibitors were determined using a commercially available assay system according to the manufacturer's instructions (Cayman Chemical Co.). Thioetheramide-1-palmitylthio-2-palmitoylamido-1,2-dideoxy-sn-glycero-3-phosphorylcholine (T-PC) and methyl arachidonyl fluorophosphonate (MAFP) were used as inhibitors of sPLA2 (IB, IIA, and V) and Lp-PLA2, respectively, per manufacturers' instructions.

O=C1c2c(O)cc(O)cc2O[C@H](c2ccc(O)cc2)[C@H]1c1c(O)cc(O)c2c(=O)cc(-c3ccc(O)c(O)c3)oc12 [morelloflavone, 5,7, 4′, 5″, 7″, 3″, 4″-heptahydroxy-[3,8″]-flavonylflavanone]
effect on vascular smooth muscle cell migration ([1]; 0-100 mM, effect from 1 mM (1 μM)): inhibited in a dose-dependent fashion; also recorded: profound effects on migration; also recorded: blocks
migration index ([1]; 1 mM morelloflavone): 487.6±36.9 cells/mm^2
migration index ([1]; 10 mM morelloflavone): 411.3±39.5 cells/mm^2
migration index ([1]; 100 mM morelloflavone): 191.86±32.8 cells/mm^2
effect on vascular smooth muscle cell migration/invasion towards SMGS [2]: significantly blocked; also recorded: blocks
phosphorylation of FAK [3]: inhibited; also recorded: robustly decreased phosphorylation; also recorded: blocks
change in serum phospholipid concentration (Analysis of lipids): no changes
non-esterified fatty acid levels (Analysis of lipids): 0.89±0.13
serum cholesterol (Analysis of lipids): 507.2 ± 95.8 mg/dL
serum triglycerides (Analysis of lipids): 179.9±28.0
inhibition of Lp-PLA2 (Lp-PLA2): did not inhibit
